In the assay the target is T1, Lp-PLA2 (Homo sapiens, UniProt Q13093).
T1 construct: aliquoted and thawed 40 μL of pooled human plasma was previously added; from tissue; host or cells: pooled human plasma
T1 sequence (Q13093 22-441): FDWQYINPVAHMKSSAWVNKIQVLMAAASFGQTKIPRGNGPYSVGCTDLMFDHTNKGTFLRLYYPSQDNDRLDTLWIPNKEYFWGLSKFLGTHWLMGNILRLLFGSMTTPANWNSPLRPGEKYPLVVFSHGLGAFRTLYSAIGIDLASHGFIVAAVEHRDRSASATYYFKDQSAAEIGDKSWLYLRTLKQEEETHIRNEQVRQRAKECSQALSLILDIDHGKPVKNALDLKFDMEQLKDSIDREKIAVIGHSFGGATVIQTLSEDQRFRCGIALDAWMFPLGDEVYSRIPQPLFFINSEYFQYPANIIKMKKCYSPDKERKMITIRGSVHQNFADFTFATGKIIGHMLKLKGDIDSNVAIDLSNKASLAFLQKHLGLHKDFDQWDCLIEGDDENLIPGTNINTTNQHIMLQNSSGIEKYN
The experiment in a line: Lipoprotein-associated phospholipase A2 (Lp-PLA2) human plasma assay (Thio-PAF assay). In kind it is biochemical. The following applies: Lp-PLA2 human plasma assay (Thio-PAF), pooled human plasma, 30-min pre-incubation at room temperature.
As for `Cn1ccc(CN2C(=O)[C@]34C[C@H]2CN3c2cc(OCc3ccc(Oc5ccnc(C(F)(F)F)c5)c(F)c3)nc(=O)n2C4)n1` [Example 197, (3S,11aR)-7-((3-fluoro-4-((2-(trifluoromethyl)pyridin-4-yl)oxy)benzyl)oxy)-2-((1-methyl-1H-pyrazol-3-yl)methyl)-3,4-dihydro-9H, 11H-3,11a-methanopyrazino[1′2′:3,4]imidazo [1,2-c]pyrimidin-1,9(2H)-dione], the IC50 (usually the point on the concentration scale where inhibition reaches its midpoint) is 2.9 nM.

As to `O=C1N(CC23CC(C2)C3)[C@@H]2CN3c4cc(OCc5ccc(Oc6ccnc(C(F)(F)F)c6)c(F)c5)nc(=O)n4C[C@]13C2` [Example 198, (3S,11aR)-2-(bicyclo[1.1.1]pent-1-ylmethyl)-7-((3-fluoro-4-((2-(trifluoromethyl)pyridin-4-yl)oxy)benzyl)oxy)-3,4-dihydro-9H,11H-3,11a-methanopyrazino[1′,2′:3,4]imidazo [1,2-c]pyrimidin-1,9(2H)-dione], the IC50 stood at 5.1 nM. Turning to `O=C(NCc1ccccc1)C12CN3c4cc(OCc5ccc(Oc6ccnc(C(F)(F)F)c6)c(F)c5)nc(=O)n4CC3(C1)C2` [Example 199, N-benzyl-3-((3-fluoro-4-((2-(trifluoromethyl)pyridin-4-yl)oxy)benzyl)oxy)-1-oxo-1H,6H, 9H-7,8a-methanopyrrolo[1′,2′:3,4]imidazo [1,2-c]pyrimidine-7(8H)-carboxamide], the IC50 is 7.9 nM. Turning to `N#CC12CN3c4cc(OCc5ccc(Oc6ccnc(C(F)(F)F)c6)c(F)c5)nc(=O)n4CC3(C1)C2` [Example 200, 3-((3-fluoro-4-((2-(trifluoromethyl)pyridin-4-yl)oxy)benzyl)oxy)-1-oxo-1H,6H,9H-7,8a-methanopyrrolo[1′,2′:3,4]imidazo[1,2-c] pyrimidine-7(8H)-carbonitrile], the IC50 worked out at 4.4 nM. With `CC(C)(O)C12CN3c4cc(OCc5ccc(Oc6ccnc(C(F)(F)F)c6)c(F)c5)nc(=O)n4CC3(C1)C2` [Example 201, 3-((3-Fluoro-4-((2-trifluoromethylpyridin-4-yl)oxy)benzyl)oxy)-7-(2-hydroxypropyl-2-yl)-7,8-dihydro-1H,6H,9H-7,8a-methanopyrrolo[1′, 2′:3, 4]imidazo[1,2-c]pyrimidin-1-one], the IC50 worked out at 4.4 nM.

For the molecule `NC12CN3c4cc(OCc5ccc(Oc6ccnc(C(F)(F)F)c6)c(F)c5)nc(=O)n4CC3(C1)C2` [Example 202, 7-Amino-3-((3-fluoro-4-((2-(trifluoromethyl)pyridin-4-yl)oxy)benzyl)oxy)-7,8-dihydro-1H,6H,9H-7,8a-methanopyrrolo[1′,2′:3,4]imidazo[1,2-c]pyrimidin-1-one], the IC50 worked out at 1.9 nM.

Values taken from patent US20230044787A1, “TRICYCLE DIHYDROIMIDAZOPYRIMIDONE DERIVATIVE, PREPARATION METHOD THEREOF, PHARMACEUTICAL COMPOSITION AND USE THEREOF” (priority 2019, published 2023).
